The source made the active and inactive calls. The rule behind the calls is not given here.
Legend:
Format in all cases: functional, organism-based
Phalaris canariensis [1] = assay: Stimulation of radicle growth in Phalaris canariensis at 50 ug/ml
Lactuca sativa [2] = assay: Phytotoxicity against Lactuca sativa assessed as inhibition of radicle growth at 50 ug/ml
Lactuca sativa [3] = assay: Phytotoxicity against Lactuca sativa assessed as inhibition of germination at 50 ug/ml
Lactuca sativa [4] = assay: Phytotoxicity against Lactuca sativa assessed as inhibition of emergence rate index at 50 ug/ml
Phalaris canariensis [5] = assay: Phytotoxicity against Phalaris canariensis assessed as inhibition of radicle growth at 50 ug/ml

SMILES: CC1=C(C)C(=O)O[C@]2(C1)O[C@@]1(O)C[C@H]3[C@@H](C[C@@H](O)C4=CC=CC(=O)[C@@]43C)[C@@H]3CC[C@@](O)([C@@H]2C)[C@]31C
- Activity (Phalaris canariensis [1]): Active

SMILES: CC1=C(C)C(=O)O[C@]2(C1)O[C@@]1(O)C[C@H]3[C@@H](C[C@H](Cl)[C@]4(O)CC=CC(=O)[C@]34C)[C@@H]3CC[C@@](O)([C@@H]2C)[C@]31C
- Activity (Lactuca sativa [2]): Active
- Activity (Lactuca sativa [3]): Active
- Activity (Lactuca sativa [4]): Active

SMILES: CC1=C(C)C(=O)O[C@]2(C1)O[C@@]1(O)C[C@H]3[C@@H](C[C@@H](O)[C@@]4(Cl)CC=CC(=O)[C@]34C)[C@@H]3CC[C@@](O)([C@@H]2C)[C@]31C
- Activity (Phalaris canariensis [5]): Active

SMILES: CC1=C(C)[C@H]2C(=O)[C@@H](C)[C@]3(O)CC[C@H]4[C@@H]5C[C@@H](O)[C@@]6(O)CC=CC(=O)[C@]6(C)[C@H]5C[C@@]2(OC1=O)[C@@]43C
- Activity (Phalaris canariensis [1]): Active
